Measured values: PubChem BioAssay (NCI)
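Test compounds were applied to cells in 96-well plates for 48 hours at 5 doses. At the GI50, growth is halved. TGI: concentration producing complete growth inhibition.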

Assays:
Experiment in all cases: NCI tumour cell line growth inhibition, 48 h
[1] = tested on: SK-MEL-5 melanoma
[2] = tested on: NCI-H23 lung
[3] = tested on: HCC-2998 colon
[4] = tested on: OVCAR-5 ovarian
[5] = tested on: MOLT-4 leukemia
[6] = tested on: SNB-78 CNS
[7] = tested on: CAKI-1 renal
[8] = tested on: M19-MEL melanoma
[9] = tested on: OVCAR-3 ovarian
[10] = tested on: KM20L2 colon
[11] = tested on: LXFL 529 NSCLC
[12] = tested on: IGROV1 ovarian
[13] = tested on: U251 CNS
[14] = tested on: DMS 114 small cell lung
[15] = tested on: HT29 colon
[16] = tested on: SF-539 CNS
[17] = tested on: SW-620 colon

CC#C[P+](c1ccccc1)(c1ccccc1)c1ccccc1
TGI [1]: 11.9 µM
TGI [2]: 7.03 µM
TGI [3]: 14.5 µM
TGI [4]: 22 µM
TGI [5]: 5.31 µM
TGI [6]: 22.9 µM
TGI [7]: 11.3 µM
TGI [8]: 11.8 µM
TGI [9]: 14.3 µM
TGI [10]: 21.3 µM
TGI [11]: 12.6 µM
TGI [12]: 26.1 µM
TGI [13]: 11.8 µM
TGI [14]: 9.95 µM
TGI [15]: 12.9 µM
TGI [16]: 10.1 µM

Cc1c(CNc2ccc(C(=O)NC(CC(=O)O)C(=O)O)cc2)ccc2nc(N)nc(N)c12 (centres undefined)
TGI [1]: > 1000 µM
TGI [2]: > 1000 µM
TGI [3]: 21.2 µM
TGI [4]: > 1000 µM
TGI [17]: > 1000 µM
TGI [5]: > 1000 µM
GI50 [7]: 48.6 µM
TGI [7]: > 1000 µM
GI50 [9]: 34.6 µM
TGI [9]: > 1000 µM
TGI [12]: > 1000 µM
GI50 [13]: 0.226 µM
TGI [13]: > 1000 µM
TGI [14]: > 66.7 µM
TGI [15]: > 1000 µM
TGI [16]: > 1000 µM

CC1(C)OC(=C(C#N)C#N)C(C#N)=C1/C=C/c1ccncc1
TGI [1]: 14.4 µM
TGI [2]: 5.56 µM
TGI [3]: 19.5 µM
TGI [4]: 8.11 µM
TGI [17]: 4.41 µM
TGI [5]: 4.42 µM
TGI [7]: 3.64 µM
TGI [9]: 3.59 µM
TGI [12]: 4.21 µM
TGI [13]: 3.65 µM
TGI [15]: 4.07 µM
TGI [16]: 3.49 µM
